Legend:
[1] = tested on: urinary excretion of 20-HETE; test: Effect of an irreversible P-450 inhibitor on the urinary excretion of 20-HETE; format: in vivo, rats; settings: ABT 50 mg/kg ip, second 50 mg/kg injection 12 h later, 24-h urine vs control
Method: To label the fatty acids, we resuspended samples, which were extracted and dried under argon, in 20 μl of acetonitrile containing 36.4 mM 2-(2,3-naphthalimino)ethyl trifluoromethanesulfonate. N,N-diisopropylethylamine (10 μl) was added to catalyze the reaction. The sample was reacted for 30 min at room temperature. The reactions were dried down under argon, resuspended in 1 ml of 20% acetonitrile:water, and applied to a Sep-Pak Vac column. The column was washed with 6 ml of 50% acetonitrile:water solution to remove unreacted dye and eluted with 500 μl of ethyl acetate. The eluent was dried under argon, and the samples were resuspended in 100 μl of the IPLC mobile phase (methanol:water:acetic acid, 82:18:0.1 vol/vol/vol). […] Fluorescence intensity was continuously monitored using a fluorescence detector (model L-7480; Hitachi, Naperville, Ill.) at a medium gain sensitivity. The amount of 20-HETE in the sample was determined by comparing the area of the 20-HETE peak to that of an internal standard. […]
SHR and normotensive Sprague-Dawley rats were placed in special metabolic cages (model 650-00350; Nalgene, Rochester, N.Y.) that efficiently separated urine from food and feces and were allowed to equilibrate for 5 days. […] The radioactive products were monitored using a radioactive flow detector (model 120; Radiomatic Instrument, Tampa, Fla.).

P-4504A enzyme = P-4504A enzyme activity (20-HETE production) in renal cortical microsomes from treated rats; format: in vivo
Description: SHR and normotensive Sprague-Dawley rats were placed in special metabolic cages (model 650-00350; Nalgene, Rochester, N.Y.) that efficiently separated urine from food and feces and were allowed to equilibrate for 5 days. After 5 days, the food was withdrawn from the rat to prevent contamination of the urine sample and a 24-h control urine sample was collected on dry ice. After the control sample was collected, food was returned to the rats, and after a 2-day recovery period, the rats received an intraperitoneal injection of ABT (50 mg/kg) followed by a second (50 mg/kg) injection 12 h later. Two hours after administration of the first dose of ABT, food was withdrawn and a 24-h experimental urine sample was collected on dry ice. After the urine was collected, the rats were killed with pentobarbital sodium (100 mg/kg ip), and the kidneys were collected. The renal cortex was separated from the renal medulla, frozen in liquid nitrogen, and stored overnight for measurement of the renal metabolism of AA. Briefly, the renal cortex was homogenized in a 10 mM potassium phosphate buffer (pH 7.7) containing 250 mM sucrose, 1 mM EDTA, and 10 mM magnesium chloride, and microsomes were prepared by differential centrifugation. […] The radioactive products were monitored using a radioactive flow detector (model 120; Radiomatic Instrument, Tampa, Fla.).

Nn1nnc2ccccc21 [ABT, 1-aminobenzotriazole]
fall in urinary excretion of 20-HETE after administration of ABT ([1]; SHR (n=4)): 65±10%
fall in urinary excretion of 20-HETE after administration of ABT ([1]; Sprague-Dawley rats (n=5)): 74±9%
20-HETE production by renal cortical microsomes (P-4504A enzyme; microsomes from kidneys of ABT-treated SHR (n=4), vehicle 459±192): 12±4 pmol●min^−1●mg^−1
20-HETE production by renal cortical microsomes (P-4504A enzyme; microsomes from kidneys of ABT-treated Sprague-Dawley rats (n=5), vehicle 324±25): 25±3 pmol●min^−1●mg^−1

— patent US6764855B2, “Fluorescent hplc assay for 20-hete and other p-450 metabolites of arachidonic acid” (MCW Research Foundation, priority 2000, dated 2004)
